From PMC9916969 (International Journal of Molecular Sciences, 2023)

Tests used:
β-amyloid (1–42) (Aβ42) = β-amyloid (1–42) (Aβ42) (Homo sapiens, UniProt P05067); assay: Inhibition of Aβ42 self-aggregation (thioflavin T); assay type: biochemical; conditions: Aβ42 50 µM; compound 100 µM; 24 h, 37 °C; thioflavin T; read-out: Inhibition of Aβ42 Self-Aggregation
Procedure: The inhibitory activity of tested hybrids against the self-aggregation of Aβ42 was determined in vitro using the thioflavin T (ThT) fluorimetric assay. According to [84], the ThT test is ideal for preliminary screening of inhibitors of Aβ42 self-aggregation, as it enables the quantitative testing of large numbers of compounds within a relatively short time.
The influence of the inhibitory effect of the test compounds toward Aβ42 self-aggregation was determined using the thioflavin T (ThT) fluorescence method with minor modifications. This assay is based on a specific interaction between the fluorescent dye thioflavin T that binds to the β-sheets of assembled amyloid fibrils leading to a significant increase in fluorescence signal. Therefore, the decrease in ThT fluorescence correlates with the ability of the studied compounds to inhibit the formation of amyloid aggregates.
One mg of lyophilized HFIP-pretreated Aβ42 from BACHEM (Bubendorf, Switzerland) was dissolved in DMSO to obtain a stable initial solution ([Aβ42] = 500 μM); then it was aliquoted and stored at −20 °C.
For the measurement of Aβ42 self-aggregation and amyloid fibril inhibition studies by the tested compounds, aliquots of 500 μM Aβ42 stock solution were diluted in 215 mM Na-phosphate buffer pH = 8.0 to a final concentration of 50 μM Aβ42. Then the samples were incubated for 24 h at 37 °C without stirring in the absence (base level of Aβ42 self-aggregation, control) or presence of the test compounds. Myricetin and propidium iodide were used as reference compounds (positive controls). All compounds were used in a concentration of 100 µM. To quantify Aβ42 fibril formation, after incubation, 5 μM ThT in 50 mM glycine-NaOH buffer pH 8.5 was added to the solutions to a final concentration of 4 μM ThT and the fluorescence was measured at 440 nm (excitation) and 485 nm (emission). Analyses were performed with a FLUOStar Optima microplate reader (LabTech, Ortenberg, Germany). The blanks consisted of 215 mM Na-phosphate buffer, pH = 8.0, 20% (v/v) DMSO or test compounds, respectively. Each assay was run in triplicate.

porcine liver CES = assay: In vitro CES inhibition (4-NPA substrate); assay type: biochemical; conditions: compound 20 µM, n.a. = not active
Excerpt: Assessment of the esterase profile of new potential anti-AD molecules enables the estimation of both the primary pharmacological effects of the tested compounds—their inhibition of AChE and BChE—and their possible unwanted side effect—inhibition of CES, which hydrolyzes numerous ester-containing drugs. For the esterase profile evaluation, human erythrocyte AChE, equine serum BChE, and porcine liver CES were used. These sources of BChE and CES were employed because of their relatively low cost, high sequence identity to human enzymes, and the exploratory character of this work.
Chromophore absorbances were measured with a FLUOStar Optima microplate reader (BMG Labtech, Ortenberg, Germany). […] Initially, we used a single concentration of 20 µM for all compounds.

EeAChE PAS = target: T1, EeAChE PAS (Electrophorus electricus, UniProt O42275); assay type: binding; conditions: compound 20 µM; EeAChE 7 µM; propidium iodide 8 µM
T1 construct: The enzyme was electric eel AChE (EeAChE type VI-S, lyophilized powder, Sigma-Aldrich); purchased Sigma-Aldrich type VI-S; host or cells: electric eel (tissue-derived)
T1 sequence (O42275 24-633): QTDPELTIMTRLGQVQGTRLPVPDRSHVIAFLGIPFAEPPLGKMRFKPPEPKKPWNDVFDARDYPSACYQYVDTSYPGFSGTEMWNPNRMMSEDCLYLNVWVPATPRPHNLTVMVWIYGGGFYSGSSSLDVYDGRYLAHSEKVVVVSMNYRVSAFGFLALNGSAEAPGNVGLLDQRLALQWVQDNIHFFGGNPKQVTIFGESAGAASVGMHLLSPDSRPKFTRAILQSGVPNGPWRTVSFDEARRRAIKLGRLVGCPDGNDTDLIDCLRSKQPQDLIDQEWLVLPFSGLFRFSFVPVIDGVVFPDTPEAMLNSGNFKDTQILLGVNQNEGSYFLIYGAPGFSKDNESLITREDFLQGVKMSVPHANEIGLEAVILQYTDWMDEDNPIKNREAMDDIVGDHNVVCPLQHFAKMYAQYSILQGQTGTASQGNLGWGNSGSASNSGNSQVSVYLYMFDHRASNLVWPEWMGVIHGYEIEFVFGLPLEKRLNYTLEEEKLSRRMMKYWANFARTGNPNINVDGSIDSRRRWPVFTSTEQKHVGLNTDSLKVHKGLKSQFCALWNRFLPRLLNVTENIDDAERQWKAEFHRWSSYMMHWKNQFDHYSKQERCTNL
Excerpt: This method is widely used as a screening approach to assess the potential ability of compounds to block AChE-induced β-amyloid aggregation. This is because when the compounds bind to the AChE PAS, they prevent the binding of β-amyloid, thereby inhibiting its aggregation.
The enzyme was electric eel AChE (EeAChE type VI-S, lyophilized powder, Sigma-Aldrich). We selected this source of AChE for consistency with our other reports and because of the purity, specific activity, and lower cost compared to human AChE.
Propidium iodide (final concentration 8 μM) was then added for a further 15 min incubation, and the fluorescence spectrum was taken (530 nm excitation and 600 nm emission) using a FLUOStar Optima microplate reader. The same concentration of propidium iodide in the Tris buffer was used as the blank. Triplicate determinations were recorded and the results were calculated via the following equation:% Displacement = 100 − (IFAChE+ Propidium + inhibitor/IFAChE + Propidium) × 100, where IFAChE + Propidium = fluorescence intensity of propidium iodide associated with AChE in the absence of the test compound (taken as 100%), and IFAChE + Propidium + inhibitor = fluorescence intensity of propidium iodide associated with AChE in the presence of the test compound.

in vitro = assay type: cell-based; conditions: mouse
Procedure: […]. Accordingly, in the present work, we paid special attention to the study of the cytotoxic activity of compounds on primary cultures of mouse hepatocytes using standard MTT methodology.
The cytotoxicity of the compounds was evaluated using a primary culture of mouse hepatocytes isolated at the Center for Biotechnology and Bioengineering, Ural Federal University, Ekaterinburg, Russia, according to the standard method. Cells were seeded in 96-well plates in the inoculum dose of 1 × 10^4 cells/mL and cultured for 24 h in Dulbecco’s Modified Eagle Medium (DMEM), with 1% (w/v) glutamine in the presence of 10% (v/v) fetal bovine serum and gentamicin (50 mg/L) at 37 °C, with a humidified atmosphere of 5% (v/v) CO2. Cell viability was assessed using the standard MTT assay. The compounds were dissolved in DMSO and then in a nutrient medium, after which they were added to the wells with cells at final concentrations of 10^−7, 10^−6, 10^−5, and 10^−4 M. Hepatocytes were exposed to test compounds for 24 h at 37 °C, 95% relative humidity and 5% (v/v) CO2 atmosphere. After incubation, the medium was replaced with 100 μL of fresh medium containing MTT (0.5 mg/mL). The plates were then incubated at 37°C in a CO2 incubator for 2 h. Then the medium with MTT was removed and DMSO was added to dissolve the formazan crystals.
The results of the MTT assay were evaluated on a Tecan Infinite M200 PRO (Tecan Austria GmbH, Grödig, Austria) plate spectrophotometer at 570 nm by comparing the optical density of a formazan solution in the assay and control wells. The cell viability was expressed as the percentage of untreated control. The results were obtained from three independent experiments performed in six replicates. The IC50 (μM) values were calculated by the AAT Bioquest-calculator: (https://www.aatbio.com/tools/ic50-calculator, accessed on 1 December 2022) and expressed as a mean ± standard error of the mean (SEM). Statistical analysis was carried out using Microsoft Excel 2007 (Microsoft Corporation, Redmond, WA, USA) and Statistica 2009 (Tulsa, OK, USA) programs.

Sequence of β-amyloid (1–42) (Aβ42) (P05067 672-713 limits assumed): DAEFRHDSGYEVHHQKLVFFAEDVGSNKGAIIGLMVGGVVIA

| SMILES | inhibition at 100 µM (β-amyloid (1–42) (Aβ42)) | Inhibitory activity against CES, inhibition at 20 µM (porcine liver CES) | Propidium Displacement from EeAChE PAS (EeAChE PAS) | IC50 at 24 h (in vitro) |
| --- | --- | --- | --- | --- |
| O=C(NCCCCCCNc1c2c(nc3ccccc13)CCCC2)c1ccccc1O [5b] | 41.5 ± 2.9% | 19.5 ± 0.9% | 12.6 ± 1.0% | 4.89 ± 0.08 µM |
| Oc1ccccc1/C=N/CCCCCCCCNc1c2c(nc3ccccc13)CCCC2 [10c] | 80.1 ± 5.6% | 23.0 ± 0.3% | 19.8 ± 1.7% | 5.87 ± 0.14 µM |
| O=C(NCCCCCCCCNc1c2c(nc3ccccc13)CCCC2)c1cc(F)c(F)cc1O [7c] | 37.2 ± 2.9% | 8.6 ± 0.7% | 13.6 ± 1.0% |  |
| O=C(NCCCCCCNc1c2c(nc3ccccc13)CCCC2)c1cc(F)c(F)cc1O [7b] | 24.1 ± 2.1% | 7.1 ± 1.0% | 12.2 ± 0.9% | 15.16 ± 0.09 µM |
